# Data published in patent US12129261B2, “Crystalline forms of a MCL-1 inhibitor, a process for their preparation and pharmaceutical compositions containing them” (LES LABORATOIRES SERVIER, priority 2018, dated 2024).
# Columns and labels:
# Assay type in all cases: physicochemical
# [1] = Hygroscopicity by dynamic vapor sorption (DVS)
# Description: The hygroscopicity of crystalline Form M of Compound A obtained according to any one of the processes of Examples 1 to 6 was assessed using the dynamic vapor sorption (DVS) technique. 5 to 10 mg of the drug substance test sample were accurately weighed into a DVS sample pan working at 25° C. under controlled humidity. The mass of the sample was recorded at 50% RH (relative humidity) until reaching a stable value. Thereafter the mass variation was recorded between 50% RH and 90% RH at a rate of 10% per hour. Mass variations were also recorded between 90% RH and 0% RH and from 0% RH back to 50% RH. The relative humidity was maintained constant when it reached either 0 or 90% RH until the mass variation was less than 0.002% per minute within a limit of lime of 15 hours. An increase in sample mass of approximately 0.4% was recorded by DVS analysis when a sample was exposed to relative humidities from 50% to 90% at 25° C.
# [2] = Water content by coulometric titration
# Description: The water content of crystalline Form M of Compound A obtained according to any one of the processes of Examples 1 to 6 was determined by coulometric titration using a Metrohm Coulometer composed of a 774 oven sample processor, a 774 SC controller, 831 KF coulometer and a 846 Dosing interface with Tiamo 1.2 software About 10 mg of accurately weighed micronized drug substance were introduced in vials heated for 10 minutes at 140° C. The water content of the powder was also determined by the coulometric method.
# [3] = Stability studies of crystalline Form M (storage, XRPD and post-storage HPLC); settings: for stability towards temperature and humidity: 6-month storage period under various conditions
# Description: For all storage conditions and storage periods, 20 mg of crystalline Form M of Compound A obtained according to any one of the processes of Examples 1 to 6 were introduced in a 30-mL vial for post-storage HPLC analysis (packaging: PVO=Opened glass container; VRAC PA=Double polyethylene bag).
# [4] = Solubility in water; settings: pH 7.5, water
# [5] = Stability studies of crystalline Form A (storage, post-storage HPLC); settings: for (i) Polymorphic stability / (ii) chemical stability, drug substance content determined by LC: polyethylene bag in sealed quadruple laminated foil bag
# From the text: For all storage conditions and storage periods, 1.2 g of crystalline Form A of Compound A obtained according to the process of Example 15 were introduced in a specific packaging for post-storage HPLC analysis.
# [6] = 25° C. 60% RH, VRAC PA, 12 months
# [7] = 30° C. 65% RH, VRAC PA, 12 months
# [8] = 40° C. 75% RH, VRAC PA, 3 months
# [9] = 40° C. 75% RH, VRAC PA, 6 months
# [10] = 25° C./60% RH, 24 months of storage
# [11] = 30° C./75% RH, 1 month of storage
# [12] = 40° C./75% RH, 6 months of storage
# [13] = 50° C./75% RH, 1 month of storage
compound,measurement,setting,value
"COc1ccccc1-c1nccc(COc2ccccc2CC(Oc2ncnc3sc(-c4ccc(F)cc4)c(-c4ccc(OCCN5CCN(C)CC5)c(Cl)c4C)c23)C(=O)O)n1 (centres unmarked) [crystalline Form M of Compound A, 2-{[5-{3-chloro-2-methyl-4-[2-(4-methylpiperazin-1-yl)ethoxy]phenyl}-6-(4-fluorophenyl)thieno[2,3-d]pyrimidin-4-yl]oxy}-3-(2-{[2-(2-methoxyphenyl)pyrimidin-4-yl]methoxy}phenyl)propanoic acid]",hygroscopicity according to the European Pharmacopoeia,[1],slightly hygroscopic
same,change to the crystalline form in X-ray powder diffractogram after water sorption/desorption/sorption cycle,[1]; DVS cycle 50-90-0-50% RH,no change
same,increase in sample mass (DVS),"[1]; between 0% to 50% RH, 25° C.",approximately 0.1%
same,decrease in sample mass (DVS),"[1]; between 90% to 0% RH, 25° C.",approximately 0.5%
same,increase in sample mass (DVS),[1]; relative humidities from 50% to 90% at 25° C.,approximately 0.4%
same,water content,[2]; vials heated for 10 minutes at 140° C.,0.1 % in weight
same,stability towards temperature and humidity,[3],very stable
same,stability towards temperature and humidity,[3]; listed as Crystalline Form M of Compound A,remains stable
same,stability on storage,[3]; 12-month storage period under 25° C./60% RH or 30° C./65% RH,remains stable
same,"(ii) chemical stability, drug substance content determined by LC","[3]; 25° C. 60% RH, VRAC PA, 3 months",(ii) 100.0% m/m
same,"(ii) chemical stability, drug substance content determined by LC","[3]; 25° C. 60% RH, VRAC PA, 6 months",(ii) 99.7% m/m
same,(i) Polymorphic stability,[3]; [6],(i) Form M
same,"(ii) chemical stability, drug substance content determined by LC",[3]; [6],(ii) 98.9% m/m
same,(i) Polymorphic stability,"[3]; 25° C. 90% RH, PVO, 3 months",(i) Form M
same,"(ii) chemical stability, drug substance content determined by LC","[3]; 25° C. 90% RH, PVO, 3 months",(ii) 99.7% m/m
same,(i) Polymorphic stability,"[3]; 25° C. 90% RH, PVO, 6 weeks",(i) Form M
same,"(ii) chemical stability, drug substance content determined by LC","[3]; 25° C. 90% RH, PVO, 6 weeks",(ii) 100.0% m/m
same,"(ii) chemical stability, drug substance content determined by LC","[3]; 30° C. 65% RH, VRAC PA, 3 months",(ii) 99.6% m/m
same,"(ii) chemical stability, drug substance content determined by LC","[3]; 30° C. 65% RH, VRAC PA, 6 months",(ii) 100.0% m/m
same,(i) Polymorphic stability,[3]; [7],(i) Form M
same,"(ii) chemical stability, drug substance content determined by LC",[3]; [7],(ii) 98.8% m/m
same,(i) Polymorphic stability,[3]; [8],(i) Form M
same,"(ii) chemical stability, drug substance content determined by LC",[3]; [8],(ii) 99.9% m/m
same,(i) Polymorphic stability,[3]; [9],(i) Form M
same,"(ii) chemical stability, drug substance content determined by LC",[3]; [9],(ii) 100.0% m/m
same,(i) Polymorphic stability,"[3]; 50° C. 75% RH, PVO, 3 months",(i) Form M
same,"(ii) chemical stability, drug substance content determined by LC","[3]; 50° C. 75% RH, PVO, 3 months",(ii) 100.1% m/m
same,(i) Polymorphic stability,"[3]; 50° C. 75% RH, PVO, 6 weeks",(i) Form M
same,"(ii) chemical stability, drug substance content determined by LC","[3]; 50° C. 75% RH, PVO, 6 weeks",(ii) 100.2% m/m
"COc1ccccc1-c1nccc(COc2ccccc2CC(Oc2ncnc3sc(-c4ccc(F)cc4)c(-c4ccc(OCCN5CCN(C)CC5)c(Cl)c4C)c23)C(=O)O)n1 [Compound A, (2R)-2-{[(5Sa)-5-{3-chloro-2-methyl-4-[2-(4-methylpiperazin-1-yl)ethoxy]phenyl}-6-(4-fluorophenyl)thieno[2,3-d]pyrimidin-4-yl]oxy}-3-(2-{[2-(2-methoxyphenyl)pyrimidin-4-yl]methoxy}phenyl)propanoic acid]",solubility,[4],< 1 µg/mL
"COc1ccccc1-c1nccc(COc2ccccc2CC(Oc2ncnc3sc(-c4ccc(F)cc4)c(-c4ccc(OCCN5CCN(C)CC5)c(Cl)c4C)c23)C(=O)O)n1 (centres unmarked) [crystalline Form A of Compound A, 2-{[5-{3-Chloro-2-methyl-4-[2-(4-methylpiperazin-1-yl)ethoxy]phenyl}-6-(4-fluorophenyl)thieno[2,3-d]pyrimidin-4-yl]oxy}-3-(2-{[2-(2-methoxyphenyl)pyrimidin-4-yl]methoxy}phenyl)propanoic acid]",stability on storage,[5]; 24-month storage period under 25° C./60% RH,remains stable
same,(i) Polymorphic stability,[5]; [10],(i) Form A
same,"(ii) chemical stability, drug substance content determined by LC",[5]; [10],(ii) 98.8% after % m/m
same,(i) Polymorphic stability,[5]; [11],(i) Form A
same,"(ii) chemical stability, drug substance content determined by LC",[5]; [11],(ii) 99.3% after % m/m
same,(i) Polymorphic stability,[5]; [12],(i) Form A
same,"(ii) chemical stability, drug substance content determined by LC",[5]; [12],(ii) 99.5% after % m/m
same,(i) Polymorphic stability,[5]; [13],(i) Form A
same,"(ii) chemical stability, drug substance content determined by LC",[5]; [13],(ii) 99.3% after % m/m
same,stability towards temperature and humidity,[5]; several months storage period under more severe conditions,still remains stable
"COc1ccccc1-c1nccc(COc2ccccc2CC(Oc2ncnc3sc(-c4ccc(F)cc4)c(-c4ccc(OCCN5CCN(C)CC5)c(Cl)c4C)c23)C(=O)O)n1 (centres unmarked) [Form MH, 2-{[5-{3-Chloro-2-methyl-4-[2-(4-methylpiperazin-1-yl)ethoxy]phenyl}-6-(4-fluorophenyl)thieno[2,3-d]pyrimidin-4-yl]oxy}-3-(2-{[2-(2-methoxyphenyl)pyrimidin-4-yl]methoxy}phenyl)propanoic acid]",water content,"[2]; coulometric method, powder after maturation in water",29.3%
